Data published in patent publication US20110028447A1, “INDAZOLE DERIVATIVES” (Pfizer Inc., priority 2008, published 2011).
Read-outs that look alike come from different tables or passages of the source.

What was measured:
human CB1 receptor [1] = molecular target: T1, human CB1 receptor (Homo sapiens, UniProt P21554); assay: [35S] GTPγS binding on membranes of CHO cells expressing the human CB1 receptor (agonism); assay type: biochemical; parameters: expressed in transfected cells; membrane preparation
Experimental: Membrane preparation: CHO cells expressing the human CB1 receptor were grown to 80% confluence in Ham's F-12 Nutrient Medium (Invitrogen) containing 10% fetal bovine serum (Invitrogen), 1% pen/strep (Invitogen), 1% Nonessential amino acids (Invitrogen) and 500 μg/ml G418 (Invitrogen). Cells were released from flasks using Cell Dissociation Buffer (Invitrogen). Cells were pelleted by centrifugation at 500×G for 5 minutes. Membranes were prepared by resuspending cells in ice cold Assay Buffer (25 mM Tris pH 7.4, 5 mM EDTA, 5 mM EGTA, Complete Protease Inhibitor (Roche)). Cells were lysed with 12 strokes of a dounce homogenizer. Unlysed cells were pelleted by centrifugation at 500×G for 5 minutes. Membranes were pelleted by centrifugation at 25,000×G for 30 minutes. Membranes were resuspended in TEE, dounced 12 strokes, and pelleted a second time at 25,000×G for 30 minutes. Membrane pellet was resuspended in 50 mM Tris pH 7.4, 100 mM NaCl, 3 mM MgCl2, 0.2 mM EGTA, Complete Protease Inhibitor (Roche). Protein concentration was determined using the Micro-BCA Protein Assay Kit (Pierce) using BSA as a standard. Membranes were frozen and stored at −80 degrees Celsius until use.
GTPγS Binding: 40 μl of test compound was incubated with 20 μl of [^35S] GTPγS (Perkin Elmer) (1250 Ci/millimole) and 140 μl of membrane homogenate (5 μg/well) in polypropylene 96-well plates (Corning). Final reaction conditions were 50 mM Tris pH 7.4, 100 mM NaCl, 3 mM MgCl2, 0.2 mM EGTA, 0.04% BSA. After incubation at 37 degrees Celsius for 45 minutes reactions were harvested by vacuum filtration through Unifilter GF/B-96 filters (Perkin Elmer) using a FilterMate Plate Harvester (Perkin Elmer). Filters were rinsed 4 times with ice cold 50 mM Tris pH 7.4, 3 mM MgCl2, 0.2 mM EGTA and dried at 50 degrees Celsius for at least 30 minutes. 40 μl of Microscint-20 (Perkin Elmer) was added per well, and plates were counted using a Top-Count Microplate Scintillation Counter (Perkin Elmer). Binding data were analyzed and EC50 values were calculated using Graph Pad Prism 4.0 Software.

human CB1 receptor [2] = molecular target: T1, human CB1 receptor; assay: Human CB1 receptor binding, [3H] CP-55,940 displacement on HEK cell membranes; parameters: expressed in transfected cells; host or cells: HEK cells, doxycycline-induced; membrane preparation
How it was run: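 Membranes from doxycycline-induced HEK cells expressing human CB1 incubated 60 min at room temperature with [3H] CP-55,940 (final […]) in 50 mM Tris pH 7.4, 100 mM NaCl, 3 mM MgCl2, 0.2 mM EGTA, 0.04% BSA. Nonspecific binding defined with 50 μM WIN-55,212-2; filtration and scintillation counting gave EC50 and Ki.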

[3] = GTPγS EC50, human CB1, CHO cell membranes
[4] = human CB1, CHO cell membranes, read-out: GTPγS EC50

T1 sequence (P21554 whole entry): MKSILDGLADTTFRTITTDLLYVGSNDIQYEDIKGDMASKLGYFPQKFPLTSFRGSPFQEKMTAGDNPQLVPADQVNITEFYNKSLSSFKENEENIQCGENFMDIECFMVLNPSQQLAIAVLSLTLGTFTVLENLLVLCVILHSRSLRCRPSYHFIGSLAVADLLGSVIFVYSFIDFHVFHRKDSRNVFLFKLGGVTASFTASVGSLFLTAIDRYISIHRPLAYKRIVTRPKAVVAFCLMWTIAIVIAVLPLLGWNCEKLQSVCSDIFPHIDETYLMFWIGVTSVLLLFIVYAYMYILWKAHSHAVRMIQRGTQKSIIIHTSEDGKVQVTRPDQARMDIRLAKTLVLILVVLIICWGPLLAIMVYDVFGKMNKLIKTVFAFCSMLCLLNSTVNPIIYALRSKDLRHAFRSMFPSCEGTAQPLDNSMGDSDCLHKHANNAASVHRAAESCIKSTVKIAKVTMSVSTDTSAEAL

Compound	EC50 (human CB1 receptor [1]; [3]) [nM]	Ki (human CB1 receptor [2]; CB1 Ki) [nM]	EC50 (human CB1 receptor [1]; [4]) [nM]	Ki (human CB1 receptor [2]; read-out: CB1 Ki) [nM]
CC(C)(C)C(NC(=O)c1nn(Cc2ccc(C#N)cc2)c2ccc(F)cc12)C(=O)NCCO (stereo not drawn) [Example 166]	132	5.14	–	–
CC(C)(C)C(NC(=O)c1nn(Cc2ccc(F)cc2)c2ccc(F)cc12)C(N)=O (stereo not drawn) [Example 170]	0.7	0.27	–	–
CC(C)(C)C(NC(=O)c1nn(Cc2ccc(F)cc2)c2ccc(F)cc12)C(=O)NC1CC1 (stereo not drawn) [Example 171]	0.44	0.42	–	–
CC(C)(C)C(NC(=O)c1nn(Cc2ccc(F)cc2)c2ccc(F)cc12)C(=O)NCCO (stereo not drawn) [Example 172]	0.42	0.42	–	–
CC(C)(C)C(NC(=O)c1nn(Cc2ccc(F)cc2)c2ccc(F)cc12)C(=O)NCC(N)=O (stereo not drawn) [Example 173]	5.12	2.37	–	–
CC(C)(C)C(NC(=O)c1nn(Cc2ccc(F)cc2)c2ccc(F)cc12)C(=O)NCCCO (stereo not drawn) [Example 174]	1.81	1.1	–	–
CC(C)(C)C(NC(=O)c1nn(Cc2ccc(F)cc2)c2c(F)cccc12)C(N)=O (stereo not drawn) [Example 175]	0.64	0.19	–	–
CC(C)(C)C(NC(=O)c1nn(Cc2ccc(F)cc2)c2c(F)cccc12)C(=O)NC1CC1 (stereo not drawn) [Example 176]	0.51	0.22	–	–
CC(C)(C)C(NC(=O)c1nn(Cc2ccc(F)cc2)c2c(F)cccc12)C(=O)NCCO (stereo not drawn) [Example 177]	0.31	0.28	–	–
CC(C)(C)C(NC(=O)c1nn(Cc2ccc(F)cc2)c2c(F)cccc12)C(=O)NCCCO (stereo not drawn) [Example 178]	1.61	0.56	–	–
CC(C)(C)C(NC(=O)c1nn(Cc2ccc(F)cc2)c2c(F)cccc12)C(=O)NCC(N)=O (stereo not drawn) [Example 179]	5.41	0.87	–	–
CC(C)(C)C(NC(=O)c1nn(Cc2ccc(F)cc2)c2c(F)cccc12)C(=O)NCc1nnc(C(N)=O)o1 (stereo not drawn) [Example 180]	–	–	3.81	0.37
CC(C)(C)C(NC(=O)c1nn(Cc2ccc(F)cc2)c2c(Cl)cccc12)C(N)=O (stereo not drawn) [Example 181]	0.33	0.1	–	–
CC(C)(C)C(NC(=O)c1nn(Cc2ccc(F)cc2)c2c(Cl)cccc12)C(=O)NC1CC1 (stereo not drawn) [Example 182]	2.23	0.34	–	–
CC(C)(C)C(NC(=O)c1nn(Cc2ccc(F)cc2)c2c(Cl)cccc12)C(=O)NCCO (stereo not drawn) [Example 183]	0.83	0.26	–	–
CC(C)(C)C(NC(=O)c1nn(Cc2ccc(F)cc2)c2c(Cl)cccc12)C(=O)NCCCO (stereo not drawn) [Example 184]	3.94	0.37	–	–
CC(C)(C)C(NC(=O)c1nn(Cc2ccc(F)cc2)c2c(Cl)cccc12)C(=O)NCC(N)=O (stereo not drawn) [Example 185]	10.2	0.51	–	–
CC(C)(C)C(NC(=O)c1nn(Cc2ccc(F)cc2)c2c(F)cccc12)C(=O)NCCNS(=O)(=O)C1CC1 (stereo not drawn) [Example 186]	–	–	1.03	0.19
CC(C)(C)[C@H](NC(=O)c1nn(Cc2ccc(F)cc2)c2c(Cl)cccc12)C(=O)NCCNS(=O)(=O)C1CC1 [Example 187]	–	–	1.09	0.09
CC(C)(C)C(NC(=O)c1nn(Cc2ccc(C#N)cc2)c2c(Cl)cccc12)C(=O)NC1CC1 (stereo not drawn) [Example 198]	7.07	1.19	–	–
CC(C)(C)C(NC(=O)c1nn(Cc2ccc(C#N)cc2)c2c(Cl)cccc12)C(=O)NCCO (stereo not drawn) [Example 199]	8.94	1.32	–	–

Compound	EC50 (human CB1 receptor [1]; [3]) [nM]	Ki (human CB1 receptor [2]; CB1 Ki) [nM]	EC50 (human CB1 receptor [1]; [4]) [nM]	Ki (human CB1 receptor [2]; read-out: CB1 Ki) [nM]
CC(C)(C)C(NC(=O)c1nn(Cc2ccc(C#N)cc2)c2c(Cl)cccc12)C(=O)NCCCO (stereo not drawn) [Example 200]	35	4.8	–	–
CC(C)(C)C(NC(=O)c1nn(Cc2ccc(C#N)cc2)c2c(Cl)cccc12)C(=O)NCC(N)=O (stereo not drawn) [Example 201]	70.1	14.2	–	–
CC(C)(C)C(NC(=O)c1nn(Cc2ccc(C#N)cc2)c2c(Cl)cccc12)C(=O)NCCNS(=O)(=O)C1CC1 (stereo not drawn) [Example 202]	–	–	3.07	0.8
CC(C)(C)C(NC(=O)c1nn(Cc2ccc(C#N)cc2)c2c(Cl)cccc12)C(=O)NCC(O)CO (stereo not drawn) [Example 203]	63.2	10.2	–	–
CC(C)(C)[C@H](NC(=O)c1nn(Cc2ccc(F)cc2)c2ccccc12)C(=O)NCC1CCOCC1 [Example 211]	18.3	3.08	–	–
CC(C)(C)[C@H](NC(=O)c1nn(Cc2ccc(C#N)cc2)c2c(F)cccc12)C(=O)N1Cc2ccccc2C1 [Example 213]	–	–	57.7	15.7
CC(C)(C)[C@H](NC(=O)c1nn(Cc2ccc(C#N)cc2)c2c(F)cccc12)C(=O)N1CC(O)C1 [Example 214]	23.4	3.87	–	–
CC(C)(C)[C@H](NC(=O)c1nn(Cc2ccc(C#N)cc2)c2c(F)cccc12)C(=O)N[C@@H](CO)c1ccccc1 [Example 215]	–	–	41.3	7.69
CC(C)(C)[C@H](NC(=O)c1nn(Cc2ccc(F)cc2)c2ccccc12)C(=O)NCc1nn[nH]n1 [Example 218]	360	7.92	–	–
CC(C)(C)[C@H](NC(=O)c1nn(Cc2ccc(F)cc2)c2ccccc12)C(=O)N1CCN(C(N)=O)CC1 [Example 220]	–	–	3.78	1.26
CC(C)(C)[C@H](NC(=O)c1nn(Cc2ccc(F)cc2)c2ccccc12)C(=O)N1CCC(CO)CC1 [Example 223]	4.76	1.12	–	–
CC(C)(C)[C@H](NC(=O)c1nn(Cc2ccc(F)cc2)c2ccccc12)C(=O)N1CCC(CCO)CC1 [Example 224]	–	–	19.3	6.77
CC(C)(C)[C@H](NC(=O)c1nn(Cc2ccc(F)cc2)c2ccccc12)C(=O)N1CCC(C(N)=O)CC1 [Example 225]	–	–	26.9	6.3
CC(C)(C)[C@H](NC(=O)c1nn(Cc2ccc(F)cc2)c2c(Cl)cc(Cl)cc12)C(N)=O [Example 226]	0.73	0.18	–	–
CC(C)(C)[C@H](NC(=O)c1nn(Cc2ccc(F)cc2)c2ccccc12)C(=O)N1CCN(C(=O)CCC(N)=O)CC1 [Example 228]	–	–	15.1	4.26
CC(C)(C)[C@H](NC(=O)c1nn(Cc2ccc(F)cc2)c2ccccc12)C(=O)N[C@@H](CO)C(N)=O [Example 230]	31.4	6.5	–	–
CC(C)(C)[C@H](NC(=O)c1nn(Cc2ccc(F)cc2)c2ccccc12)C(=O)NCCc1nnc(C(N)=O)o1 [Example 231]	–	–	5.12	2.25
CC(C)(C)[C@H](NC(=O)c1nn(Cc2ccc(F)cc2)c2ccccc12)C(=O)N1CCN(CC(O)CO)CC1 (stereo partly drawn) [Example 233]	–	–	11.5	2.45
COC(=O)[C@@H](CO)NC(=O)[C@@H](NC(=O)c1nn(Cc2ccc(F)cc2)c2ccccc12)C(C)(C)C [Example 234]	36.1	13.4	–	–
COC(=O)[C@H](CO)NC(=O)[C@@H](NC(=O)c1nn(Cc2ccc(F)cc2)c2ccccc12)C(C)(C)C [Example 236]	3.91	0.94	–	–
COC(=O)[C@@H](O)CNC(=O)[C@@H](NC(=O)c1nn(Cc2ccc(F)cc2)c2ccccc12)C(C)(C)C [Example 238]	25.7	6.46	–	–
